Test results: patent US8952024B2, “Herbicidal pyrimidone derivatives” (E I du Pont de Nemours and Company, priority 2009, dated 2015)

What was measured:
Format in all cases: in vivo
[1] = test system: umbrella sedge (Cyperus difformis); assay: Test B flooded paddy test; conditions: for Plant response rating, Flood, Sedge, Umbrella: 250 g ai/ha, flooded paddy test, visual rating on 0 to 100 scale (0 no effect, 100 complete control) after 13 to 15 days; for Plant response rating, Sedge, Umbrella: Flood (flooded paddy test), 13 to 15 days; for Sedge, Umbrella plant response rating: Flood, 31 g ai/ha, scale 0 to 100 (0 no effect, 100 complete control)
In short: (§1)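 Visual scores run from 0 (no effect) to 100 (complete control), assigned by comparison with controls 13 to 15 days after treatment. Test compounds went straight into water standing 3 cm above the soil, around plants at the 2-leaf stage kept in a greenhouse.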

[2] = test system: rice (Oryza sativa); assay: Test B flooded paddy test; conditions: for Plant response rating, Flood, Rice: 250 g ai/ha, flooded paddy test, visual rating on 0 to 100 scale (0 no effect, 100 complete control) after 13 to 15 days; for Plant response rating, Rice: Flood (flooded paddy test), 13 to 15 days; for Rice plant response rating: Flood, 31 g ai/ha, scale 0 to 100 (0 no effect, 100 complete control)
In short: as §1

[3] = test system: johnsongrass (Sorghum halepense); assay: Test B pre-/postemergence plant response; conditions: Postemergence
In short: (§2)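 Plants treated either at seeding (loam/sand soil) or postemergence at 2 to 18 cm height, using a surfactant-containing non-phytotoxic solvent formulation. Evaluation was visual after 13 to 15 days, 0 to 100 scale relative to controls.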

[4] = test system: goosegrass (Eleusine indica); assay: Test B pre-/postemergence plant response; conditions: Postemergence
In short: as §2

[5] = test system: lambsquarters (Chenopodium album); assay: Test B pre-/postemergence plant response; conditions: Postemergence
In short: as §2

[6] = test system: Surinam grass (Brachiaria decumbens); assay: Test B pre-/postemergence plant response; conditions: Postemergence
In short: as §2

[7] = test system: giant foxtail (Setaria faberii); assay: Test B pre-/postemergence plant response; conditions: Postemergence
In short: as §2

[8] = test system: green foxtail (Setaria viridis); assay: Test B pre-/postemergence plant response; conditions: Postemergence
In short: as §2

[9] = test system: wild oat (Avena fatua); assay: Test B pre-/postemergence plant response; conditions: Postemergence
In short: as §2

[10] = test system: blackgrass (Alopecurus myosuroides); assay: Test B pre-/postemergence plant response; conditions: for Blackgrass plant response rating (0 to 100 scale): 62 g ai/ha, postemergence, 0 is no effect, 100 is complete control; for Plant response rating, Blackgrass: Postemergence
In short: as §2

[11] = test system: ragweed (common ragweed, Ambrosia elatior); assay: Test B pre-/postemergence plant response; conditions: Postemergence
In short: as §2

[12] = test system: corn (Zea mays); assay: Test B pre-/postemergence plant response; conditions: Postemergence
In short: as §2

[13] = test system: pigweed (Amaranthus retroflexus); assay: Test B pre-/postemergence plant response; conditions: Postemergence
In short: as §2

[14] = 62 g ai/ha, scale of 0 to 100 where 0 is no effect and 100 is complete control
[15] = 125 g ai/ha, scale 0 to 100, 0 is no effect, 100 is complete control
[16] = 31 g ai/ha, 0 to 100 scale (0 no effect, 100 complete control)
[17] = 125 g ai/ha, scale 0 to 100 (0 no effect, 100 complete control)
[18] = 250 g ai/ha, scale 0 to 100 (0 no effect, 100 complete control), 13 to 15 days

Compound: O=C1CCCC(O)=C1C(=O)c1cnc(-c2ccccc2)n(C2CCSCC2)c1=O [Compound 164]
- Plant response rating, Flood, Sedge, Umbrella [1]: 90
- Plant response rating, Sedge, Umbrella [1, 14]: 0
- Plant response rating, Sedge, Umbrella [1, 15]: 0
- Sedge, Umbrella plant response rating [1]: 0
- Plant response rating, Flood, Rice [2]: 35
- Plant response rating, Rice [2, 14]: 0
- Plant response rating, Rice [2, 15]: 20
- Rice plant response rating [2]: 0
- Plant response rating, Johnsongrass [3, 16]: 45
- Plant response rating, Johnsongrass [3, 17]: 95
- Plant response rating, Johnsongrass [3, 18]: 98
- Plant response rating, Goosegrass [4, 16]: 85
- Plant response rating, Goosegrass [4, 17]: 98
- Plant response rating, Goosegrass [4, 18]: 98
- Plant response rating, Lambsquarters [5, 16]: 98
- Plant response rating, Lambsquarters [5, 17]: 100
- Plant response rating, Lambsquarters [5, 18]: 100
- Plant response rating, Surinam Grass [6, 16]: 60
- Plant response rating, Surinam Grass [6, 17]: 95
- Plant response rating, Surinam Grass [6, 18]: 98
- Plant response rating, Foxtail, Giant [7, 16]: 90
- Plant response rating, Foxtail, Giant [7, 17]: 98
- Plant response rating, Foxtail, Giant [7, 18]: 100
- Plant response rating, Foxtail, Green [8, 16]: 70
- Plant response rating, Foxtail, Green [8, 17]: 98
- Plant response rating, Foxtail, Green [8, 18]: 100
- Plant response rating, Oat, Wild [9, 16]: 25
- Plant response rating, Oat, Wild [9, 17]: 85
- Plant response rating, Oat, Wild [9, 18]: 90
- Blackgrass plant response rating (0 to 100 scale) ([10]; 13 to 15 days): 5
- Plant response rating, Blackgrass [10, 16]: 5
- Plant response rating, Blackgrass [10, 17]: 10
- Plant response rating, Blackgrass [10, 18]: 35
- Plant response rating, Ragweed [11, 16]: 85
- Plant response rating, Ragweed [11, 17]: 98
- Plant response rating, Ragweed [11, 18]: 100
- Plant response rating, Corn [12, 16]: 15
- Plant response rating, Corn [12, 17]: 45
- Plant response rating, Corn [12, 18]: 70
- Plant response rating, Pigweed [13, 16]: 98
- Plant response rating, Pigweed [13, 17]: 100
- Plant response rating, Pigweed [13, 18]: 100

Compound: O=C1CCCC(O)=C1C(=O)c1cnc(-c2cc(F)cc(F)c2)n(C2CCCCC2)c1=O [Compound 181]
- Plant response rating, Sedge, Umbrella [1, 15]: 85
- Sedge, Umbrella plant response rating [1]: 75
- Plant response rating, Rice [2, 15]: 65
- Rice plant response rating [2]: 0
- Plant response rating, Johnsongrass [3, 16]: 100
- Plant response rating, Johnsongrass [3, 17]: 100
- Plant response rating, Johnsongrass [3, 18]: 100
- Plant response rating, Goosegrass [4, 16]: 95
- Plant response rating, Goosegrass [4, 17]: 100
- Plant response rating, Goosegrass [4, 18]: 100
- Plant response rating, Lambsquarters [5, 16]: 100
- Plant response rating, Lambsquarters [5, 17]: 100
- Plant response rating, Lambsquarters [5, 18]: 100
- Plant response rating, Surinam Grass [6, 16]: 70
- Plant response rating, Surinam Grass [6, 17]: 95
- Plant response rating, Surinam Grass [6, 18]: 100
- Plant response rating, Foxtail, Giant [7, 16]: 98
- Plant response rating, Foxtail, Giant [7, 17]: 100
- Plant response rating, Foxtail, Giant [7, 18]: 100
- Plant response rating, Foxtail, Green [8, 16]: 70
- Plant response rating, Foxtail, Green [8, 17]: 95
- Plant response rating, Foxtail, Green [8, 18]: 98
- Plant response rating, Oat, Wild [9, 16]: 65
- Plant response rating, Oat, Wild [9, 17]: 90
- Plant response rating, Oat, Wild [9, 18]: 100
- Blackgrass plant response rating (0 to 100 scale) ([10]; 13 to 15 days): 5
- Plant response rating, Blackgrass [10, 16]: 0
- Plant response rating, Blackgrass [10, 17]: 15
- Plant response rating, Blackgrass [10, 18]: 15
- Plant response rating, Ragweed [11, 16]: 98
- Plant response rating, Ragweed [11, 17]: 100
- Plant response rating, Ragweed [11, 18]: 100
- Plant response rating, Corn [12, 16]: 70
- Plant response rating, Corn [12, 17]: 95
- Plant response rating, Corn [12, 18]: 95
- Plant response rating, Pigweed [13, 16]: 100
- Plant response rating, Pigweed [13, 17]: 100
- Plant response rating, Pigweed [13, 18]: 100

Compound: O=C1CCCC(O)=C1C(=O)c1cnc(-c2cccc(F)c2)n(C2CCCCC2)c1=O [Compound 187]
- Plant response rating, Flood, Sedge, Umbrella [1]: 100
- Plant response rating, Sedge, Umbrella [1, 14]: 95
- Plant response rating, Flood, Rice [2]: 70
- Plant response rating, Rice [2, 14]: 15
- Plant response rating, Johnsongrass [3, 16]: 90
- Plant response rating, Johnsongrass [3, 17]: 100
- Plant response rating, Johnsongrass [3, 18]: 100
- Plant response rating, Goosegrass [4, 16]: 85
- Plant response rating, Goosegrass [4, 17]: 100
- Plant response rating, Goosegrass [4, 18]: 100
- Plant response rating, Lambsquarters [5, 16]: 98
- Plant response rating, Lambsquarters [5, 17]: 100
- Plant response rating, Lambsquarters [5, 18]: 100
- Plant response rating, Surinam Grass [6, 16]: 65
- Plant response rating, Foxtail, Giant [7, 16]: 98
- Plant response rating, Foxtail, Giant [7, 17]: 100
- Plant response rating, Foxtail, Giant [7, 18]: 100
- Plant response rating, Foxtail, Green [8, 16]: 65
- Plant response rating, Foxtail, Green [8, 17]: 98
- Plant response rating, Foxtail, Green [8, 18]: 98
- Plant response rating, Oat, Wild [9, 16]: 10
- Plant response rating, Oat, Wild [9, 17]: 45
- Plant response rating, Oat, Wild [9, 18]: 45
- Blackgrass plant response rating (0 to 100 scale) ([10]; 13 to 15 days): 0
- Plant response rating, Blackgrass [10, 16]: 0
- Plant response rating, Blackgrass [10, 17]: 5
- Plant response rating, Blackgrass [10, 18]: 5
- Plant response rating, Ragweed [11, 16]: 95
- Plant response rating, Ragweed [11, 17]: 100
- Plant response rating, Ragweed [11, 18]: 100
- Plant response rating, Corn [12, 16]: 50
- Plant response rating, Corn [12, 17]: 75
- Plant response rating, Corn [12, 18]: 80
- Plant response rating, Pigweed [13, 16]: 100
- Plant response rating, Pigweed [13, 17]: 100
- Plant response rating, Pigweed [13, 18]: 100

Compound: O=C1CCCC(O)=C1C(=O)c1cnc(-c2cccs2)n(C2CCCCC2)c1=O [Compound 189]
- Plant response rating, Flood, Sedge, Umbrella [1]: 100
- Plant response rating, Sedge, Umbrella [1, 14]: 95
- Plant response rating, Flood, Rice [2]: 60
- Plant response rating, Rice [2, 14]: 20
- Plant response rating, Johnsongrass [3, 16]: 50
- Plant response rating, Johnsongrass [3, 17]: 65
- Plant response rating, Johnsongrass [3, 18]: 70
- Plant response rating, Goosegrass [4, 16]: 60
- Plant response rating, Goosegrass [4, 17]: 90
- Plant response rating, Goosegrass [4, 18]: 90
- Plant response rating, Lambsquarters [5, 16]: 98
- Plant response rating, Lambsquarters [5, 17]: 100
- Plant response rating, Lambsquarters [5, 18]: 100
- Plant response rating, Surinam Grass [6, 16]: 65
- Plant response rating, Surinam Grass [6, 17]: 80
- Plant response rating, Surinam Grass [6, 18]: 85
- Plant response rating, Foxtail, Giant [7, 16]: 75
- Plant response rating, Foxtail, Giant [7, 17]: 90
- Plant response rating, Foxtail, Giant [7, 18]: 98
- Plant response rating, Foxtail, Green [8, 16]: 65
- Plant response rating, Foxtail, Green [8, 17]: 90
- Plant response rating, Foxtail, Green [8, 18]: 95
- Plant response rating, Oat, Wild [9, 16]: 5
- Plant response rating, Oat, Wild [9, 17]: 10
- Plant response rating, Oat, Wild [9, 18]: 25
- Blackgrass plant response rating (0 to 100 scale) ([10]; 13 to 15 days): 0
- Plant response rating, Blackgrass [10, 16]: 0
- Plant response rating, Blackgrass [10, 17]: 5
- Plant response rating, Blackgrass [10, 18]: 5
- Plant response rating, Ragweed [11, 16]: 10
- Plant response rating, Ragweed [11, 17]: 75
- Plant response rating, Ragweed [11, 18]: 80
- Plant response rating, Corn [12, 16]: 20
- Plant response rating, Corn [12, 17]: 35
- Plant response rating, Corn [12, 18]: 45
- Plant response rating, Pigweed [13, 16]: 80
- Plant response rating, Pigweed [13, 17]: 100
- Plant response rating, Pigweed [13, 18]: 100
